Among the test systems are A549 NSCLC; EKVX NSCLC; OVCAR-8 ovarian; RPMI-8226 leukemia; SK-MEL-5 melanoma; SR leukemia; HCT-15 colon; DU-145 prostate; NCI/ADR-RES ovarian; MCF7 breast.
Holding throughout (assay): DTP human tumour cell line panel, 48 h

Each structure is given as a SMILES string.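 The compound was tested at five concentrations on cells cultured in 96-well plates, with a 48-hour exposure period. GI50 is the concentration that inhibits growth by half. TGI marks complete inhibition of growth.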

With `O=c1cc(-c2ccccn2)[nH]c2cc(F)ccc12`, the TGI with A549 NSCLC, in the test on EKVX NSCLC, in the test with OVCAR-8 ovarian, in the test with RPMI-8226 leukemia, with SK-MEL-5 melanoma and in the test with SR leukemia was greater than 100 µM throughout.
With `O=C(CSc1nc(-c2ccccc2)c(-c2ccccc2)[nH]1)NNC(=S)Nc1ccccc1`, the TGI in the test on A549 NSCLC, in the test on EKVX NSCLC, in the test with HCT-15 colon, with OVCAR-8 ovarian, in the test on RPMI-8226 leukemia and with SK-MEL-5 melanoma was greater than 100 µM in each case. The compound further came in with a TGI in the test on SR leukemia greater than 100 µM.
Regarding `Clc1ccc(-c2c(C3=NCCN3)nnn2-c2ccccc2)cc1`, the TGI with A549 NSCLC, in the test with EKVX NSCLC, with HCT-15 colon, with OVCAR-8 ovarian, with RPMI-8226 leukemia and with SK-MEL-5 melanoma was greater than 100 µM in each case. In the test on SR leukemia, this compound showed a concentration for total growth inhibition (TGI) greater than 100 µM.
Take `CCCCCCCCCCCCCC(=O)NCC(OCC)OCC`: the TGI in the test with A549 NSCLC, in the test on EKVX NSCLC, in the test with HCT-15 colon, in the test with OVCAR-8 ovarian and in the test with SK-MEL-5 melanoma was greater than 100 µM each time.
For `COC(=O)[C@H]1N[C@@H](C(=O)OC)C23CCC[C@H]2CC[C@]1(C(OC)OC)C3`, the total growth inhibition concentration (TGI) with A549 NSCLC, with EKVX NSCLC, with HCT-15 colon, with OVCAR-8 ovarian, in the test on RPMI-8226 leukemia and with SK-MEL-5 melanoma was greater than 100 µM in each case.
`COc1cc(C2c3cc4c(cc3[C@@H](OCCN(C)C)C3COC(=O)[C@H]23)OCO4)cc(OC)c1O` (stereo not given in full): the TGI with EKVX NSCLC turned out to be 6.07 µM; in the test with HCT-15 colon, 3.12 µM; in the test with OVCAR-8 ovarian, 2.17 µM; in the test with SK-MEL-5 melanoma it was 1.42 µM; with SR leukemia, 0.0831 µM.
`O=C(O)Cc1ccccc1CCc1ccccc1Cl`: the total growth inhibition concentration (TGI) with A549 NSCLC, with EKVX NSCLC, in the test with HCT-15 colon, in the test with OVCAR-8 ovarian, in the test with RPMI-8226 leukemia and in the test on SK-MEL-5 melanoma was greater than 100 µM each time. The compound also had a total growth inhibition concentration (TGI) in the test on SR leukemia greater than 100 µM.
For the compound `Cc1c(Cl)cccc1NC(=O)/C(Cl)=C(\Cl)C(=O)O`, the TGI was found to be 38.9 µM with A549 NSCLC; 30 µM with HCT-15 colon; 56.5 µM in the test on RPMI-8226 leukemia; 38.2 µM in the test with SK-MEL-5 melanoma; 39.6 µM with SR leukemia.
Consider `C[C@]12CC[C@H]3[C@@H](CC[C@]4(O)C[C@@H](O)CC[C@]34CO)[C@@]1(O)CC[C@@H]2C1=CC(=O)OC1`, for which the TGI in the test on A549 NSCLC was determined as 1.74 µM; with DU-145 prostate it was 2.24 µM; with EKVX NSCLC, 3.49 µM; with HCT-15 colon it was 4.72 µM; in the test on NCI/ADR-RES ovarian, 3.8 µM; in the test with OVCAR-8 ovarian it was 3.82 µM. The results for the TGI in the test with RPMI-8226 leukemia, with SK-MEL-5 melanoma and with SR leukemia were 6.83 µM, 5.08 µM and greater than 100 µM, respectively.
As to `Clc1ccc2ns[s+]c2c1`, the total growth inhibition concentration (TGI) in the test on A549 NSCLC, with DU-145 prostate, in the test with EKVX NSCLC, with HCT-15 colon, in the test on MCF7 breast and in the test with OVCAR-8 ovarian was greater than 100 µM each time. For the same compound, the TGI in the test with RPMI-8226 leukemia is greater than 100 µM; with SK-MEL-5 melanoma, greater than 96.2 µM; in the test on SR leukemia, greater than 31.6 µM.
Turning to `O=C(N/N=C/c1ccc(Cl)cc1)c1[nH]c2ccc(Cl)cc2c1-c1ccccc1`, the GI50 with A549 NSCLC was 0.348 µM; with DU-145 prostate, 0.104 µM; in the test with EKVX NSCLC, 0.317 µM; with HCT-15 colon it was 0.255 µM; with MCF7 breast it was 0.115 µM; in the test with OVCAR-8 ovarian, 0.132 µM. In addition, the GI50 was 0.0193 µM with RPMI-8226 leukemia, 0.214 µM in the test with SK-MEL-5 melanoma and 0.133 µM in the test with SR leukemia. The TGI with A549 NSCLC was 29.3 µM; in the test with DU-145 prostate, 0.367 µM; with EKVX NSCLC, greater than 100 µM; in the test on MCF7 breast, 21.7 µM; in the test on OVCAR-8 ovarian, 32.6 µM; in the test on RPMI-8226 leukemia, 0.0556 µM. Moreover, the values for the TGI in the test with SK-MEL-5 melanoma and with SR leukemia were 0.469 µM and 2.09 µM, respectively.
In the case of `COc1ccc(N2C(=O)C3c4[nH]c5ccccc5c4C4CCCCCCC4C3C2=O)cc1` (stereo not given), the total growth inhibition concentration (TGI) was 22.8 µM in the test with A549 NSCLC; 41.4 µM in the test with EKVX NSCLC; 27 µM in the test on HCT-15 colon; 13 µM in the test with OVCAR-8 ovarian; greater than 100 µM with RPMI-8226 leukemia; 61.9 µM in the test with SK-MEL-5 melanoma. Further, in the test on SR leukemia, the TGI was greater than 21.3 µM.
Regarding `CN1C(=O)C2C=CC1C1CCC2N(C)C1=O` (stereo not given), the TGI with A549 NSCLC, in the test on EKVX NSCLC, in the test on HCT-15 colon, in the test on OVCAR-8 ovarian, in the test on RPMI-8226 leukemia and with SK-MEL-5 melanoma was greater than 100 µM throughout.
On to `CCOC(=O)C1=C(Nc2ccc(Cl)c(Cl)c2)OC/C1=N\NC(=O)Cc1ccccc1`, for which the total growth inhibition concentration (TGI) with A549 NSCLC, in the test with EKVX NSCLC, in the test with OVCAR-8 ovarian, in the test with RPMI-8226 leukemia and in the test on SK-MEL-5 melanoma was greater than 100 µM throughout.
Consider `COc1cc(C2c3cc4c(cc3[C@@H](N(C)C)[C@H]3COC(=O)C23)OCO4)cc(OC)c1O` (stereo not given in full), for which the TGI in the test with A549 NSCLC is greater than 100 µM; in the test on EKVX NSCLC, greater than 100 µM; with HCT-15 colon, greater than 100 µM; in the test on OVCAR-8 ovarian, 80.1 µM; with RPMI-8226 leukemia, greater than 100 µM; in the test on SK-MEL-5 melanoma, 86.5 µM. Moreover, the concentration for total growth inhibition (TGI) in the test with SR leukemia is greater than 100 µM.
Take `C/C=C(/C)c1cnc(CC(C)C)c(=O)[nH]1`: the total growth inhibition concentration (TGI) with A549 NSCLC, in the test on DU-145 prostate, in the test on EKVX NSCLC, in the test with HCT-15 colon, in the test on OVCAR-8 ovarian and with RPMI-8226 leukemia was greater than 100 µM throughout. The TGI in the test on SK-MEL-5 melanoma and in the test with SR leukemia was greater than 100 µM each time.
Take `NC(=S)NNC(=S)NC(=O)c1ccco1`: the TGI in the test on A549 NSCLC, in the test on DU-145 prostate, with EKVX NSCLC, with HCT-15 colon, with NCI/ADR-RES ovarian and with OVCAR-8 ovarian was greater than 10 µM throughout. The total growth inhibition concentration (TGI) with RPMI-8226 leukemia, with SK-MEL-5 melanoma and in the test with SR leukemia was greater than 10 µM throughout.

A word on the TGI: it is the concentration at which net growth stops. The term GI50 denotes the concentration giving 50% growth inhibition.
